Patent US5169858A, “Anti-tumor compositions containing the reactive product of benzaldehyde or salicylaldehyde with penicillamine and method of use thereof” (priority 1986, dated 1992)

Assays:
[1] = tested on: mouse melanoma cells; format: in vivo, black mice
Procedure: (§1) Thirty-seven black mice were divided into two groups. Group I had 18 mice and was the control group. Group II had 19 mice and was the treated group. Each mouse was innoculated with 100,000 mouse melanoma cells subcutaneously. After the tumor was palpable (after about a week) the control group received saline orally. The treated group got 33 mg/kg of 5,5-dimethyl-2-phenyl-4-thiazolidine carboxylic acid every day by oral intubation. All of the control group died within an average of twenty-three days. The treated group started dying at day 50. The last mouse of the treated group died on day 70. The treated group died from day 50 on at the rate of about one mouse per day. […] Two mice in the treated group survived cured. The tumor disappeared in the two cured mice.
The same experiment was repeated with 20 control mice and 20 mice in the treated group, employing doses of 5,5-dimethyl-2-phenyl-4-thiazolidine carboxylic acid at 100 mg/kg. The treatment began about one day after innoculation. The control group died at the same time as the control group in the previous experiment. […] Five of the treated mice died between the 7th and 9th day. The reasons for these deaths are unclear, but it is presumed that they were asphyxiated by intubation.

[2] = Water solubility of free compound and copper chelates; format: physicochemical; settings: stated in the description, no test described
[3] = Terol et al publication; cited from earlier work
[4] = Terol et al publication; species and route not given; cited from earlier work
[5] = tested on: mouse melanoma cells; experiment: Subcutaneous mouse melanoma, treatment from palpable tumor, 33 mg/kg orally every day; format: in vivo, black mice; settings: 33 mg/kg every day by oral intubation
Procedure: as §1

[6] = tested on: tumor; settings: literature / other patent (Kochi et al.; U.S. Pat. No. 4,762,705); cited from earlier work

| Structure (SMILES) | palpable tumors developed in treated group ([1]; 100 mg/kg, treatment began about one day after inoculation, 20 treated mice) | day of death of the five treated mice ([1]; mouse, in vivo) [days] | treated mice that died between the 7th and 9th day ([1]; mouse, in vivo) | water solubility [2] | effect as a radio-protectant agent [3] | LD50 [4] [mg/kg] | tumor development compared with control group [5] | day of death of last mouse of treated group ([5]; 19 treated mice) [days] | mice in treated group that survived cured (tumor disappeared) ([5]; 19 treated mice) | day on which treated group started dying ([5]; 19 treated mice, control died within an average of twenty-three days) [days] | anti-tumor activity [6] |
| --- | --- | --- | --- | --- | --- | --- | --- | --- | --- | --- | --- |
| CC1(C)SC(c2ccccc2)NC1C(=O)O (stereo not drawn) [5,5-dimethyl-2-phenyl-4-thiazolidine carboxylic acid] | no palpable tumors | 7 to 9 | Five | water-soluble | absolutely no effect whatsoever | 1200 | developed slower than the tumors in the control group | 70 | Two | 50 |  |
| CC(C)(S)[C@@H](N)C(=O)O [penicillamine, dimethylcysteine] |  |  |  |  |  |  |  |  |  |  | has anti-tumor activity |
| O=Cc1ccccc1 [benzaldehyde] |  |  |  |  |  |  |  |  |  |  | has been shown to have anti-tumor activity |
